Experimental findings from ChEMBL document CHEMBL1177812, “Hydroxysafflor Yellow A suppresses thrombin generation and inflammatory responses following focal cerebral ischemia-reperfusion in rats” (2010) are described below.

Experiment [1] relates to Rattus norvegicus. Description: Neuroprotective activity against ischemia reperfusion injury in Wistar rat assessed as factor 7 level at 2 mg/kg, iv by amidolytic method (RVb = 1.24 +/- 0.34 mg/L). It is filed as functional.
Experiment [2] has as its system Rattus norvegicus. The experiment in a line: Neuroprotective activity against ischemia reperfusion injury in Wistar rat assessed as fibrinogen level at 8 mg/kg, iv by polymerization time method (RVb = 1.45 +/- 0.35 g/L). It is filed as functional.
Experiment [3] deals with Rattus norvegicus. Description: Antiinflammatory activity in Wistar rat hippocampus assessed as reduction in ischemia reperfusion injury-induced IkappaB alpha protein expression at 2 to 8 mg/kg, iv by Western blotting. In kind it is functional, organism-based. (In western blotting, separated proteins are transferred to a membrane and probed.)
Experiment [4] relates to Rattus norvegicus. Description: Antiinflammatory activity in Wistar rat brain assessed as reduction in ischemia reperfusion injury-induced MPO activity at 2 to 8 mg/kg, iv. It is filed as functional, organism-based.
The test system of experiment [5] is Rattus norvegicus. The experiment in a line: Neuroprotective activity against ischemia reperfusion injury in Wistar rat assessed as thrombin-antithrombin complex at 4 mg/kg, iv by enzyme immunoassay (RVb = 3.45 +/- 0.57 ug/L). In kind it is functional.
The test system of experiment [6] is Rattus norvegicus. Description: Neuroprotective activity in Wistar rat assessed as ischemia reperfusion injury-induced plasma angiotensin level at 2 to 8 mg/kg, iv by radioimmunoassay. It is filed as functional, organism-based.
In experiment [7] the test system is Rattus norvegicus. The experiment in a line: Neuroprotective activity against ischemia reperfusion injury in Wistar rat assessed as […] 1+2 at 2 mg/kg, iv by enzyme immunoassay (RVb = 1.97 +/- 0.44 ug/L). In kind it is functional.
Experiment [8] concerns Rattus norvegicus. Description: Antiinflammatory activity in Wistar rat assessed as reduction in ischemia reperfusion injury-induced ICAM1 protein expression at 2 to 8 mg/kg, iv by Western blotting. It is filed as functional, organism-based.
The subject of experiment [9] is Rattus norvegicus. The experiment in a line: Neuroprotective activity against ischemia reperfusion injury in Wistar rat assessed as thrombin-antithrombin complex at 2 mg/kg, iv by enzyme immunoassay (RVb = 3.45 +/- 0.57 ug/L). In kind it is functional.
The subject of experiment [10] is Rattus norvegicus. The experiment in a line: Neuroprotective activity against ischemia reperfusion injury in Wistar rat assessed as factor 7 level at 8 mg/kg, iv by amidolytic method (RVb = 1.24 +/- 0.34 mg/L). In kind it is functional.
The test system of experiment [11] is Rattus norvegicus. Description: Antiinflammatory activity in Wistar rat assessed as reduction in ischemia reperfusion injury-induced ICAM1 mRNA expression at 2 to 8 mg/kg, iv by RT-PCR. In kind it is functional, organism-based.
The test system of experiment [12] is Rattus norvegicus. The experiment in a line: Neuroprotective activity against ischemia reperfusion injury in Wistar rat assessed as fibrinogen level at 4 mg/kg, iv by polymerization time method (RVb = 1.45 +/- 0.35 g/L). In kind it is functional.
Experiment [13] deals with Rattus norvegicus. The experiment in a line: Neuroprotective activity against ischemia reperfusion injury in Wistar rat hippocampal formation assessed as reduction in prothrombin mRNA level at 2 to 8 mg/kg, iv. In kind it is functional, organism-based. The following applies: Hippocampus.
Experiment [14] deals with Rattus norvegicus. Description: Neuroprotective activity against ischemia reperfusion injury in Wistar rat assessed as factor 7 level at 4 mg/kg, iv by amidolytic method (RVb = 1.24 +/- 0.34 mg/L). It is filed as functional.
In experiment [15] the test system is Rattus norvegicus. The experiment in a line: Neuroprotective activity against ischemia reperfusion injury in Wistar rat assessed as […] 1+2 at 4 mg/kg, iv by enzyme immunoassay (RVb = 1.97 +/- 0.44 ug/L). It is filed as functional.
The subject of experiment [16] is Rattus norvegicus. Description: Neuroprotective activity against ischemia reperfusion injury in Wistar rat assessed as […] 1+2 at 8 mg/kg, iv by enzyme immunoassay (RVb = 1.97 +/- 0.44 ug/L). In kind it is functional.
In experiment [17] the test system is Rattus norvegicus. The experiment in a line: Neuroprotective activity against ischemia reperfusion injury in Wistar rat assessed as fibrinogen level at 2 mg/kg, iv by polymerization time method (RVb = 1.45 +/- 0.35 g/L). It is filed as functional.
Experiment [18] concerns Rattus norvegicus. Description: Antiinflammatory activity in Wistar rat brain assessed as inhibition of ischemia reperfusion injury-induced NF-kappaB nuclear translocation at 2 to 8 mg/kg, iv. It is filed as functional, organism-based.
Experiment [19] concerns Rattus norvegicus. Description: Neuroprotective activity against ischemia reperfusion injury in Wistar rat assessed as thrombin-antithrombin complex at 8 mg/kg, iv by enzyme immunoassay (RVb = 3.45 +/- 0.57 ug/L). In kind it is functional.
Experiment [20] has as its system Rattus norvegicus. The experiment in a line: Antiinflammatory activity in Wistar rat brain assessed as inhibition of ischemia reperfusion injury-induced p65 subunit binding to DNA at 2 to 8 mg/kg, iv by EMSA. In kind it is functional, organism-based. Background: In EMSA bound probe runs differently from free probe, usually more slowly.

SMILES strings stand for the structures. Active and inactive are the calls of the source. No cut-off for these calls is given here.

Consider `O=C(/C=C/c1ccc(O)cc1)C1=C(O)C(O)([C@@H]2O[C@H](CO)[C@@H](O)[C@H](O)[C@H]2O)C(O)=C([C@@H]2O[C@H](CO)[C@@H](O)[C@H](O)[C@H]2O)C1=O` (stereo not given in full) [HYDROXYSAFFLOR YELLOW A], for which the Activity was 1.21 mg/L in experiment [1]; 1.55 g/L in [2]; 1.89 µg/L in experiment [5]; 1.38 µg/L in experiment [7]; 2.39 µg/L in [9]; 1.01 mg/L in experiment [10]. Further, the Activity in experiment [12] amounted to 1.9 g/L; in [14], 1.19 mg/L; in experiment [15], 0.8 µg/L; in experiment [16] it was 0.54 µg/L; in [17] it was 2.06 g/L; in experiment [19], 1.48 µg/L. Also, the outcome in [3], in experiment [4], in experiment [6], in experiment [8], in [11] and in experiment [13] was Active. The outcome in experiment [18] and in [20] was Active.
